Test [1] concerns the target T1, FGFR2 (Homo sapiens, UniProt P21802).
T1 construct: made in house; host or cells: E. coli (BL21-derived), T7 phage
The test is described as follows: Kinase binding assay (kinase-tagged T7 phage, affinity beads, qPCR), Kd. The following applies: read-out: FGFR2 (Kd nM). The essentials:
(§1)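 Readout was qPCR of kinase eluted from ligand-coated affinity beads after competition with test compound. Kinases were expressed as T7 phage fusions in E. coli. Binding constants were derived by non-linear least-squares Hill fitting, Hill slope −1.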

Test [2] concerns the target T2, FGFR4 (Homo sapiens, UniProt P22455).
T2 construct: made in house; host or cells: E. coli (BL21-derived), T7 phage
The description is as above. The following applies: read-out: FGFR4 (Kd nM). The essentials:
as §1

Test [3] concerns the target T3, FGFR3 (V555M) (Homo sapiens, UniProt P22607, V555M).
T3 construct: made in house; host or cells: E. coli (BL21-derived), T7 phage
Described as above. The following applies: V555M mutant; read-out: FGFR3 (V555M) (Kd nM). The essentials:
as §1

Test [4] deals with T4, FGFR3 (Homo sapiens, UniProt P22607).
T4 construct: made in house; host or cells: E. coli (BL21-derived), T7 phage
The test is described as above. The conditions noted are these: read-out: FGFR3 (Kd nM). The essentials:
as §1

Test [5] addresses T5, FGFR1 (Homo sapiens, UniProt P11362).
T5 construct: made in house; host or cells: E. coli (BL21-derived), T7 phage
The test is described as above. The following applies: read-out: FGFR1 (Kd nM). The essentials:
as §1

The subject of test [6] is KATO-III cell line (FGFR2 amplification). The test is described as follows: Cancer cell line cell viability assay (Cell Titer-Glo), 72 hr. It counts as cell-based. The conditions noted are these: Homo sapiens, KATO III. The essentials:
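Cells seeded at 5,000-20,000/well, incubated overnight, then treated with a 9-dose, 4-fold dilution series from 3 μM in triplicate at 37° C, 5% CO2. Viability read by Cell Titer-Glo 2.0 luminescence as percent of DMSO control; IC50 from 4-parameter variable-slope sigmoidal fit.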
(In general: ATP-based viability assays read luminescence as a measure of living cells.)

For test [7], the system named is RT112/84 cell line (FGFR3-fusion). The description is as above. It counts as cell-based. The following applies: Homo sapiens, RT112/84, RT112/84 cell line (FGFR3-fusion). The essentials:
(§2)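 ATP-based luminescence (Cell Titer-Glo 2.0) measured viability after 72 h (KG-1, RT112/84) or 120 h (MDA-MB-453, HuH7) compound exposure. Dosing was nine 4-fold steps starting at 3 μM, in triplicate, on overnight-plated cells. IC50 came from a variable-slope 4-parameter fit of % DMSO control.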

Test [8] relates to KG-1 cell line (FGFR 1-fusion). The test is described as above. It counts as cell-based. The following applies: Homo sapiens, KG-1, KG-1 cell line (FGFR1-fusion). The essentials: as §2
Test [9] concerns HuH7 cell line (FGF19 amplification). The test is described as follows: Cancer cell line cell viability assay (Cell Titer-Glo), 120 hr. The format is cell-based. The following applies: Homo sapiens, Huh-7. The essentials: as §2

The values below come from patent US20250368666A1, “INDAZOLE COMPOUNDS” (TYRA BIOSCIENCES, INC., priority 2022, published 2025).

A value given as a limit tells only on which side of the number the result lay.

T3 sequence (P22607 23-806 V555M): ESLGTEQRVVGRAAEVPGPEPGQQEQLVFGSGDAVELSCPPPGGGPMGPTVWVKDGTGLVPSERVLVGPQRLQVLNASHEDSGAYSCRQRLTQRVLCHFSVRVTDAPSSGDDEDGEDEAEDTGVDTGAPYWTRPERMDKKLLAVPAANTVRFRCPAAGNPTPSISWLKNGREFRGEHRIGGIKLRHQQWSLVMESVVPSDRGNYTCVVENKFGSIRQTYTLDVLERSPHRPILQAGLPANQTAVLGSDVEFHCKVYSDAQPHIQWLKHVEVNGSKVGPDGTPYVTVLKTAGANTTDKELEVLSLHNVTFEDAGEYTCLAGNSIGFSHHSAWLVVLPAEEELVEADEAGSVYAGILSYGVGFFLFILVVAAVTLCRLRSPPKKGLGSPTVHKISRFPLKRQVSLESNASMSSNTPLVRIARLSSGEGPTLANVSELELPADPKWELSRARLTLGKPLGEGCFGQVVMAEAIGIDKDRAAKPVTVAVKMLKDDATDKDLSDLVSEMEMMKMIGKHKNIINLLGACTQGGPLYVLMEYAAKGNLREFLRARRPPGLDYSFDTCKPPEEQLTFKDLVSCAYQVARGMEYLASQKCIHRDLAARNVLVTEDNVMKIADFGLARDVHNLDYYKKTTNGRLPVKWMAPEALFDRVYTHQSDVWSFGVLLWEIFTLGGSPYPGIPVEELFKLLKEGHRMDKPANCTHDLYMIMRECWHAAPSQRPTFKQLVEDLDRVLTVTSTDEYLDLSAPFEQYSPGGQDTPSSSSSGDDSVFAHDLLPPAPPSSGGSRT
T1 sequence (P21802 22-821): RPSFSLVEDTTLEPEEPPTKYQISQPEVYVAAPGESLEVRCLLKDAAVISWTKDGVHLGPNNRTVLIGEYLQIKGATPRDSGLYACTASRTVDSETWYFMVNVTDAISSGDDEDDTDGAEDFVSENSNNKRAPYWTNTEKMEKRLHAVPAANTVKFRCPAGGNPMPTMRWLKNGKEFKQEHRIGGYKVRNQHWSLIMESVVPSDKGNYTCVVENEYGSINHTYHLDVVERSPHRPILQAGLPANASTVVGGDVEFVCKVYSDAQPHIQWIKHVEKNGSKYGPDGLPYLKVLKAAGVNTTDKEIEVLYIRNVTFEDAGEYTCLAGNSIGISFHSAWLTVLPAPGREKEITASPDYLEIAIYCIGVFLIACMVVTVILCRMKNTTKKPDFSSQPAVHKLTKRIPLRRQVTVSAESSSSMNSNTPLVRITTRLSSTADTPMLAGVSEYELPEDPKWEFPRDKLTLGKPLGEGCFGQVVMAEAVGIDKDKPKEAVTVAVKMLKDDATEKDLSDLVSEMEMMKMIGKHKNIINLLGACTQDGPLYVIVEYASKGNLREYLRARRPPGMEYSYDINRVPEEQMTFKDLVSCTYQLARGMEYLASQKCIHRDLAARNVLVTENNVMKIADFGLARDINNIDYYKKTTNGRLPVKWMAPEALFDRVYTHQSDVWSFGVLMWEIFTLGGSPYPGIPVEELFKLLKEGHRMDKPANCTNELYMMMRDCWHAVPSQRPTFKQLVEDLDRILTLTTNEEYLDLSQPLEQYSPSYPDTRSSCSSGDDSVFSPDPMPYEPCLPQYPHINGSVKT
T4 sequence (P22607 23-806): as the sequence (P22607 23-806 V555M) above, with M533V counted along it
T2 sequence (P22455 22-802): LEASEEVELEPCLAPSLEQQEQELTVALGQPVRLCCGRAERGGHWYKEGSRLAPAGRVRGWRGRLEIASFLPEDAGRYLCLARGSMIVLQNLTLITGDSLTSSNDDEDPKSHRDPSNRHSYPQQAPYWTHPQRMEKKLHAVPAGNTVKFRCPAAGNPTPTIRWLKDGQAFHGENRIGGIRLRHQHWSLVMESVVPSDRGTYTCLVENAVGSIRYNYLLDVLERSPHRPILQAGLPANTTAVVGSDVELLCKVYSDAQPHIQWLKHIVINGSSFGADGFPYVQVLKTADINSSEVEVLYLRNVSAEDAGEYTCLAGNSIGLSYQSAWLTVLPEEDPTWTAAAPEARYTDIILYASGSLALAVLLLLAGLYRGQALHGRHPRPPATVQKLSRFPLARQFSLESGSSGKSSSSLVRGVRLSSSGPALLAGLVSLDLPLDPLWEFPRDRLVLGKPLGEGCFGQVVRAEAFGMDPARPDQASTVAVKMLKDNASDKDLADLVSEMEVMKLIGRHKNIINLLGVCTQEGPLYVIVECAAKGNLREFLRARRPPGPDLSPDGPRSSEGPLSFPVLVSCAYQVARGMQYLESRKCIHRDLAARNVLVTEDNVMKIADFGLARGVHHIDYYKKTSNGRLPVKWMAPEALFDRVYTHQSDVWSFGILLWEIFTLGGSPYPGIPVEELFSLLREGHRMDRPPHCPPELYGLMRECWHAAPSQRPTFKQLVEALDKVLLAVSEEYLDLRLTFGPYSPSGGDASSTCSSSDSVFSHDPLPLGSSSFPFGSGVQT
T5 sequence (P11362 22-822): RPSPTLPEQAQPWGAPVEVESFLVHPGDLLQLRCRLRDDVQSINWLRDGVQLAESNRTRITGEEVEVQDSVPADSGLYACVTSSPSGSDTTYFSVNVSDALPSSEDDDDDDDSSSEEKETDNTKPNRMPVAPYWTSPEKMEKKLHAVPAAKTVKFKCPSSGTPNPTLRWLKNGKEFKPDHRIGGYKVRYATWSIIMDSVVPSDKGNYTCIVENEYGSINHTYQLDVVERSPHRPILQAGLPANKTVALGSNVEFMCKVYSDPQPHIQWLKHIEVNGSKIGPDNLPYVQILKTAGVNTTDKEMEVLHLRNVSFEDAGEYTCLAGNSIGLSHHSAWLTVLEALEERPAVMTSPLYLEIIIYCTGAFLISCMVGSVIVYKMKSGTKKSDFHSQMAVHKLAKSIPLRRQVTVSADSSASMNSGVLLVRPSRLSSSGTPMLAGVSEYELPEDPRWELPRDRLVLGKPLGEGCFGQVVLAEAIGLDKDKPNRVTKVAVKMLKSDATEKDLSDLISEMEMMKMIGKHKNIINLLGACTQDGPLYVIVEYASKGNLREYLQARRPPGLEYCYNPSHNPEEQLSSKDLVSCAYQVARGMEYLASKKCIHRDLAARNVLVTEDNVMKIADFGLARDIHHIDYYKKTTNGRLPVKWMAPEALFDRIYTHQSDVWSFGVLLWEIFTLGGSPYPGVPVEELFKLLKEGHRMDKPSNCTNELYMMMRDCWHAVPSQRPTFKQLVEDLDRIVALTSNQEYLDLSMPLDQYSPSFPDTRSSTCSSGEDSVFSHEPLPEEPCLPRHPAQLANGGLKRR

As for `C[C@@H](Oc1ccc2[nH]nc(-c3cnc(N4CC(C)(NC5COC5)C4)c(C#N)c3)c2c1)c1c(Cl)cncc1Cl` [Example 4, (R)-5-(5-(1-(3,5-dichloropyridin-4-yl)ethoxy)-1H-indazol-3-yl)-2-(3-methyl-3-(oxetan-3-ylamino)azetidin-1-yl)nicotinonitrile], the Kd in test [1] fell in the range of 50 to 300 nM; in [2], 1 to 50 nM; in [3] it was 1 to 50 nM; in test [4], 1 to 50 nM; in test [5], 50 to 300 nM. In addition, the IC50 in [6] is 200 to 1000 nM; in [7] it was 50 to 200 nM; in test [8] it was 200 to 1000 nM; in test [9], 0.1 to 50 nM.

As for `C[C@@H](Oc1ccc2[nH]nc(-c3cnc(N4CC(C)(NCCC(F)F)C4)c(C#N)c3)c2c1)c1c(Cl)cncc1Cl` [Example 21, (R)-5-(5-(1-(3,5-dichloropyridin-4-yl)ethoxy)-1H-indazol-3-yl)-2-(3-((3,3-difluoropropyl)amino)-3-methylazetidin-1-yl)nicotinonitrile], the Kd in test [1] was 50 to 300 nM; in [2], 1 to 50 nM; in [3] it was 1 to 50 nM; in test [4], 1 to 50 nM; in test [5] it was 50 to 300 nM. Also, the concentration for half-maximal inhibition (IC50) in test [6] lay within 200 to 1000 nM; in test [7] it was 50 to 200 nM; in [8], 200 to 1000 nM; in test [9], 50 to 200 nM.

Regarding `C[C@@H](Oc1ccc2[nH]nc(-c3cnc(N4CC(C)(CN5CCOCC5)C4)c(C#N)c3)c2c1)c1c(Cl)cncc1Cl` [Example 122, (R)-5-(5-(1-(3,5-dichloropyridin-4-yl)ethoxy)-1H-indazol-3-yl)-2-(3-methyl-3-(morpholinomethyl)aze-tidin-1-yl)nicotinonitrile], the dissociation constant (Kd) fell in the range of 50 to 300 nM in test [1]; 1 to 50 nM in test [2]; 1 to 50 nM in test [3]; 1 to 50 nM in [4]; 50 to 300 nM in test [5]. For the same compound, the concentration for half-maximal inhibition (IC50) in test [6] was 200 to 1000 nM; in test [7] it was 50 to 200 nM; in test [8], 200 to 1000 nM; in test [9] it was 50 to 200 nM.

In the case of `C[C@@H](Oc1ccc2[nH]nc(-c3cnc(N4CC(C)(N5CCP(C)(=O)CC5)C4)c(C#N)c3)c2c1)c1c(Cl)cncc1Cl` [Example 328, (R)-5-(5-(1-(3,5-dichloropyridin-4-yl)ethoxy)-1H-indazol-3-yl)-2-(3-methyl-3-(4-methyl-4-oxido-1,4-azaphosphinan-1-yl)azetidin-1-yl)nicotinonitrile], the Kd in [1], in test [2], in test [3], in [4] and in test [5] was 1 to 50 nM in each case. The 50% inhibitory concentration (IC50) in [6] is 200 to 1000 nM; in test [7] it was 50 to 200 nM; in test [8] it was > 1000 nM; in test [9] it was 50 to 200 nM.

For the compound `C[C@@H](Oc1ccc2[nH]nc(-c3cnc(N4CC(C)(N(C)C)C4)nc3)c2c1)c1c(Cl)cncc1Cl` [Example 44, (R)-1-(5-(5-(1-(3,5-dichloropyridin-4-yl)ethoxy)-1H-indazol-3-yl)pyrimidin-2-yl)-N,N,3-trimethylazetidin-3-amine], the Kd in [1], in test [2], in test [3], in test [4] and in [5] was 1 to 50 nM throughout. In addition, the IC50 in test [6] was 50 to 200 nM; in [7] it was 0.1 to 50 nM; in [8], 50 to 200 nM; in [9] it was 0.1 to 50 nM.

Consider `C[C@@H](Oc1ccc2[nH]nc(-c3cnc(N4CC(C)(NCCS(C)(=O)=O)C4)c(C#N)c3)c2c1)c1c(Cl)cncc1Cl` [Example 325, 5-[5-[(1R)-1-(3,5-dichloro-4-pyridyl)ethoxy]-1H-indazol-3-yl]-2-[3-methyl-3-(2-methylsulfonylethyl-amino)azetidin-1-yl]pyridine-3-carbonitrile], for which the dissociation constant (Kd) in test [1], in test [2], in [3], in test [4] and in test [5] was 1 to 50 nM throughout. For the same compound, the IC50 in test [6] lay in the range of 50 to 200 nM; in test [7] it was 50 to 200 nM; in test [8], 200 to 1000 nM; in [9] it was 0.1 to 50 nM.

Broadly, the Kd is the concentration at which binding is half-saturated. The IC50 is the concentration at which inhibition is half-maximal. A low value points to greater potency in that assay.
